# Assay results reported in PubChem BioAssay (NCI).
# Where “and” joins values, the source holds several entries; their conditions need not be identical. Equal values may be shown once.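 In this assay, cells in 96-well plates receive the compound at five concentrations for 48 hours. Endpoints are linearly interpolated between the surrounding concentrations. GI50 = concentration required for 50% inhibition of growth. At the TGI there is no net growth.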
# Assays:
# Experiment in all cases: growth of human tumour cells (NCI), 48 h
# [1] = system: A498 renal
# [2] = system: COLO 205 colon
# [3] = system: DU-145 prostate
# [4] = system: EKVX NSCLC
# [5] = system: NCI-H23 lung
# [6] = system: OVCAR-3 ovarian
# [7] = system: RXF 393 renal
# [8] = system: SF-539 CNS
# [9] = system: SR leukemia
# [10] = system: U251 CNS
SMILES,GI50 [1],TGI [1],GI50 [2],TGI [2],GI50 [3],TGI [3],GI50 [4],TGI [4],GI50 [5],TGI [5],GI50 [6],TGI [6],GI50 [7],TGI [7],GI50 [8],TGI [8],GI50 [9],TGI [9],GI50 [10],TGI [10]
COc1cc2nccc(Oc3ccc(NC(=O)Nc4cc(C)on4)c(Cl)c3)c2cc1OC,0.532 µM and 1.46 µM,2.67 µM and 4.6 µM,3.22 µM and 3.04 µM,32.7 µM and > 10 µM,4.31 µM and 6.6 µM,> 77.8 µM,3.02 µM and 4.69 µM,49.6 µM and > 10 µM,2.97 µM and 3.07 µM,> 100 µM,4 µM and 7.96 µM,14.4 µM and > 10 µM,1.96 µM and 1.79 µM,6.2 µM and 8.18 µM,1.49 µM and 1.41 µM,4.05 µM and 4.74 µM,2.62 µM and 3.86 µM,34.4 µM and > 10 µM,4.68 µM and 8.17 µM,> 100 µM
CC(CN(C)C)Oc1ccccc1NC1=C(Cl)C(=O)C(Nc2ccccc2OC(C)CN(C)C)=C(Cl)C1=O (stereo not given),1.51 µM,2.86 µM,0.174 µM,0.359 µM,0.255 µM,0.686 µM,0.685 µM,1.81 µM,0.273 µM,0.915 µM,0.167 µM,0.31 µM,0.663 µM,2.03 µM,1.44 µM,2.76 µM,0.265 µM,1.17 µM,1.33 µM,2.73 µM
Cc1ccc(C(=O)/C(=C\c2ccc([N+](=O)[O-])cc2)S(=O)Cc2ccc(Cl)cc2)cc1 (stereo not given),2.61 µM,7.63 µM,1.88 µM,3.81 µM,1.75 µM,3.21 µM,1.88 µM,4.02 µM,1.83 µM,3.89 µM,1.7 µM,3.14 µM,1.65 µM,3.1 µM,1.85 µM,3.37 µM,1.13 µM,10.1 µM,1.56 µM,3 µM
CN(CC(=O)Nc1nc2ccccc2[nH]1)S(=O)(=O)c1ccc(Cl)cc1,> 100 µM,> 100 µM,> 100 µM,> 100 µM,> 100 µM,> 100 µM,52.3 µM,> 100 µM,> 100 µM,> 100 µM,> 100 µM,> 100 µM,13.4 µM,55.6 µM,> 100 µM,> 100 µM,> 100 µM,> 100 µM,> 100 µM,> 100 µM
NS(=O)(=O)CC1CC[CH-]CC1.[Cl-].[Cl-].[Cl-].[Cl-].[Cl-].[Sb+5].c1ccncc1,> 100 µM,> 100 µM,> 100 µM,> 100 µM,> 100 µM,> 100 µM,> 100 µM,> 100 µM,> 100 µM,> 100 µM,> 100 µM,> 100 µM,> 100 µM,> 100 µM,> 100 µM,> 100 µM,> 100 µM,> 100 µM,> 100 µM,> 100 µM
Oc1ccc(C2c3ccccc3Oc3ccccc32)c2cccnc12,1.74 µM,64.4 µM,3.18 µM,> 100 µM,1.94 µM,> 100 µM,2 µM,> 100 µM,2.26 µM,> 100 µM,2.45 µM,> 100 µM,1.68 µM,7.1 µM,2.53 µM,25.5 µM,1.97 µM,> 100 µM,0.845 µM,> 100 µM
CN1CCN(c2ccc(NC(=O)c3cncnc3Nc3ccc(OCc4ccccn4)c(Cl)c3)cc2)CC1,1.48 µM,6.98 µM,1.41 µM,6.19 µM,4.28 µM,8.8 µM,6.25 µM,14.6 µM,5.07 µM,11.5 µM,5.23 µM,13 µM,1.93 µM,6.71 µM,1.09 µM,3.64 µM,0.742 µM,2.03 µM,2.64 µM,8.53 µM
Cc1cc(-c2ccccn2)cc(C)c1/C=C/c1cncc(-c2nn[nH]n2)c1,> 25 µM,> 25 µM,> 25 µM,> 25 µM,> 25 µM,> 25 µM,> 25 µM,> 25 µM,> 25 µM,> 25 µM,> 25 µM,> 25 µM,> 25 µM,> 25 µM,> 25 µM,> 25 µM,> 25 µM,> 25 µM,> 25 µM,> 25 µM
CC1=C(C(=O)Nc2cc(Cl)c3[nH]ncc3c2)C(c2ccc(C(F)(F)F)cc2)CC(=O)N1 (stereo not given),11.7 µM,> 25 µM,14.8 µM,> 25 µM,> 25 µM,> 25 µM,> 25 µM,> 25 µM,> 25 µM,> 25 µM,> 25 µM,> 25 µM,2.37 µM,> 25 µM,14.8 µM,> 25 µM,> 7.84 µM,> 25 µM,> 25 µM,> 25 µM
O=C(N/N=C/c1ccc(O)cc1O)c1cccc(Nc2ccnc(C(F)(F)F)c2)c1,12.8 µM,> 51 µM,0.554 µM,15 µM,1.93 µM,20.9 µM,1.32 µM,37.3 µM,3.8 µM,27.4 µM,0.488 µM,30.9 µM,2.48 µM,17.4 µM,0.967 µM,7.74 µM,0.29 µM,6.34 µM,0.617 µM,49 µM
COC(=O)c1cc2c3ccccc3[nH]c2c2sccc12,21 µM,50.6 µM,17 µM,41.8 µM,19.7 µM,66.5 µM,4.12 µM,> 100 µM,33.8 µM,> 100 µM,24.1 µM,> 100 µM,23.6 µM,80.4 µM,21.5 µM,94.8 µM,12.2 µM,56.5 µM,14.3 µM,34 µM
Cc1ccc(NC(=O)CSc2nnc3n(Cc4ccccc4)c(=O)c4c(C)c(C(N)=O)sc4n23)cc1,13.2 µM,63.1 µM,78 µM,> 100 µM,60.5 µM,> 100 µM,95 µM,> 100 µM,17.3 µM,> 100 µM,> 100 µM,> 100 µM,6.88 µM,39 µM,21.7 µM,> 100 µM,16.4 µM,34.2 µM,5.17 µM,52.9 µM
CN(Cc1cc(Br)cc(Br)c1O)Cc1c(O)ccc2ccccc12,,36.2 µM,,36.7 µM,,40.6 µM,,35.8 µM,,50.6 µM,,31.8 µM,,38.8 µM,,35.6 µM,,55.6 µM,,41 µM
Cc1cc2c(C(N)=O)c(N)n(-c3c(C)ccc(O)c3C)c2nc1C,7.5 µM,24.3 µM,1.7 µM,11.7 µM,4.16 µM,19.7 µM,21.8 µM,98.7 µM,1.25 µM,4.16 µM,3.07 µM,14.7 µM,0.12 µM,0.855 µM,0.434 µM,2.88 µM,2.47 µM,> 100 µM,4.23 µM,34.1 µM
O=C1C2CCN(CC2)C1(CO)CO,,> 79.7 µM,,43 µM,,31.6 µM,,99.4 µM,,61.9 µM,,31 µM,,52 µM,,> 78.1 µM,,55.3 µM,,> 75.5 µM
CC(=[N-])N1CCC[C@@H](Nc2c3ccccc3nc3ccccc23)C1.[Cl][Pt].[NH-]CCC[NH-],0.221 µM,0.656 µM,0.431 µM,2.69 µM,0.0326 µM,> 100 µM,2.17 µM,36 µM,0.198 µM,2.75 µM,0.763 µM,> 41.6 µM,1.25 µM,2.96 µM,2.53 µM,18.1 µM,0.445 µM,> 100 µM,1.58 µM,> 100 µM
